This is an account of results in patent publication US9605023B2, “Application of SP peptide or derivative thereof in preparing medicines for preventing or treating asthma” (priority 2012, dated 2017).

In assay [1] the test system is allergic asthma mouse model. The assay is described as follows: Histopathologic examination and lesion score of lung tissues of allergic asthma mice induced by ovalbumin and aluminium hydroxide. The assay is classed as in vivo. Here is the method:
(§1) ICR mice, half male and half female, are divided randomly into 9 groups with each group having 10 mice, that is:
(§2) 3) positive medicines group (administer an equal volume of dexamethasone injection solution with the model group, having the dosage of 0.9 μg/kg·d);
(§3) All dosage groups of the SP peptide are administered by subcutaneous injection with a 0.1 ml SP peptide solution per 10 g weight of a mouse, the blank control group uses the same amount of physiological saline (0.1 ml physiological saline per 10 g weight of a mouse), and the positive medicines group is administered by intraperitoneal injection with 0.1 ml positive medicines per 10 g weight of a mouse.
(§4) Preparation of sensitized liquid: prepare in a proportion of dissolving 10 ug ovalbumin and 2 mg aluminium hydroxide in 0.5 ml physiological saline, and use it right after being prepared.
(§5) On day 1, day 7 and day 14, the mice of all groups (the model group, the preventive administration groups, the treatment administration groups, and the positive medicines group) apart from the blank control group are injected intraperitoneally with 0.5 ml freshly prepared sensitized liquid. The blank control group is injected intraperitoneally with an equal volume of physiological saline.
(§6) Since day 21 (i.e., starting from week 4), the mice of all groups apart from the blank control group are placed in a 16 L closed container every fourth days, make the mice inhale 1 wt % ovalbumin physiological saline by ultrasonic nebulization, with an inhalation duration of 25 min/d and a nebulization flow rate of 3 ml/min, for twice a week to induce asthma, and the process continues until week 19. The mice in the blank control group undergo nebulization […] with an equal volume of physiological saline.
(§7) Particularly, the preventive administration group (the SP peptide high-dosage preventive administration group, SP peptide medium-dosage preventive administration group, and SP peptide low-dosage preventive administration group) are injected subcutaneously a corresponding dosage of SP peptide at right hindlimb of the mouse, one hour after the first intraperitoneal injection of the sensitized liquid (i.e., from day 1), and are administered every other day for 15 times in total.
(§8) From the same day, the mice in the treatment administration groups (SP high-dosage treatment administration group, SP medium-dosage treatment administration group, and SP low-dosage treatment administration group) are injected subcutaneously with a corresponding dosage of SP peptide at right hindlimb thereof, and are administered every other day for 15 times in total. From the same day, the mice in the positive medicines group are injected intraperitoneally with 0.1 ml dexamethasone injection per 10 g weight of a mouse, and are administered every other day for 15 times in total.
Lung tissue lesions (including bronchia and perivascular interstitial edema, alveolar wall congestion or emphysema) are marked respectively as 1, 2, 3 and 4 in ascending order of severity, 0 stands for no obvious lesions, and 0.5 for extreme mild lesions. All scores are accumulated, and a mean score (±SD) of each mouse in each group is calculated, and a higher score indicates a more severe level of lesions. Perform a rank-sum test to pathological score results to compare the two samples, and compare with the model group.
2.2 Data Processing: perform data processing to all data, rank-sum test to pathological score, t-test to the other data, and make statistics to analytic results.

In assay [2] the test system is r-IFN, IL-4 and IL-10. Particulars: disclosed in CN1194986C and CN1216075C; cited from earlier work.
Assay [3] relates to IL-13. Nature of the assay: IL-13 level (ELISA) in serum and lung tissue homogenates of allergic asthma mice induced by ovalbumin and aluminium hydroxide. The assay is classed as in vivo, mouse. Particulars: for IL-13 level in serums / IL-13 level in lung tissue homogenates: compared to model group. Here is the method:
as §1, §2
(§9) 4) SP peptide high-dosage preventive administration group, 5) SP peptide medium-dosage preventive administration group, and 6) SP peptide low-dosage preventive administration group (administer ovalbumin and aluminium hydroxide, and the SP peptides with a respective dosage of 250 μg/kg·d, 125 μg/kg·d and 62.5 μg/kg·d prepared into an SP peptide solution of a desired concentration with physiological saline).
(§10) 7) SP peptide high-dosage treatment administrative group, 8) SP peptide medium-dosage treatment administration group, and 9) SP peptide low-dosage treatment administration group (administer ovalbumin and aluminium hydroxide, and the SP peptides with a respective dosage of 250 μg/kg·d, 125 μg/kg·d and 62.5 μg/kg·d prepared into an SP peptide solution of a desired concentration with physiological saline).
as §3, §4, §5, §6, §7, §8
(§11) As for the determination of the experimental result, all mice are killed to obtain blood by picking off their eyeballs 6 hours after the final nebulization inhalation (week 19), and serum is collected and stored at −70° C. until needed. […]
For orientation: An ELISA detects its analyte on a solid surface through an enzyme-linked reagent.

Assay [4] concerns IL-4. Nature of the assay: IL-4 level (ELISA) in serum and lung tissue homogenates of allergic asthma mice induced by ovalbumin and aluminium hydroxide. The assay is classed as in vivo, mouse. Here is the method:
as §1, §2, §9, §10, §3, §4, §5, §6, §7, §8, §11

For assay [5], the system named is IL-13. The assay is described as follows: IL-13 level (ELISA) in serum and lung tissue homogenates of allergic asthma mice induced by ovalbumin and aluminium hydroxide. Type of assay: in vivo, mouse. As to conditions: compared to model group.
Assay [6] deals with TNF-α. Particulars: pneumonia; recorded in CN101822816A; cited from earlier work.
The mark [7] stands for this setting: positive drug group, dexamethasone 0.9 μg/kg·d i.p. every other day x15 from week 15, FIG. 6.
The mark [8] stands for this setting: SP peptide high-dosage preventive administration group, 250 μg/kg·d s.c., FIG. 9.
Where [9] appears, read: SP peptide high-dosage treatment administration group, 250 μg/kg·d s.c., FIG. 12.
The mark [10] stands for this setting: SP peptide low-dosage preventive administration group, 62.5 μg/kg·d s.c., FIG. 7.
[11] abbreviates: SP peptide low-dosage treatment administration group, 62.5 μg/kg·d s.c., FIG. 10.
Setting [12] is: SP peptide medium-dosage preventive administration group, 125 μg/kg·d s.c., FIG. 8.
[13] abbreviates: SP peptide medium-dosage treatment administration group, 125 μg/kg·d s.c., FIG. 11.
Setting [14] is: all SP peptide high-/medium-/low-dosage preventive and treatment administration groups, compared to the model group (summary statement).

Where no end group is shown, it is not given here.

In the case of `C[C@@H]1C[C@H]2[C@@H]3CCC4=CC(=O)C=C[C@]4(C)[C@@]3(F)[C@@H](O)C[C@]2(C)[C@@]1(O)C(=O)CO` [positive drug, dexamethasone, reference compound], in assay [1] (setting [7]), the “inflammatory cells infiltration (lung tissue section)” value was “infiltration with a few inflammatory cells” and the “pulmonary interstitial edema (lung tissue section)” value is “mild pulmonary interstitial edema”.

Consider GQTYTSG, for which the “level of cytokines r-IFN, IL-4 and IL-10” value in assay [2] was “increased level”. For the same compound, the “overall score of lung tissue lesion level, difference compared to the model group (rank-sum test)” value in assay [1] (SP peptide high-dosage preventive administration group, 250 μg/kg·d s.c., ** P<0.01, FIG. 3) was “highly significant differences”; in assay [1] (SP peptide high-dosage treatment administration group, 250 μg/kg·d s.c., ** P<0.01, FIG. 3), “highly significant differences”; in assay [1] (SP peptide low-dosage preventive administration group, 62.5 μg/kg·d s.c., * P<0.05, FIG. 3) it was “significant differences”; in assay [1] (SP peptide low-dosage treatment administration group, 62.5 μg/kg·d s.c., * P<0.05, FIG. 3), “significant differences”; in assay [1] (SP peptide medium-dosage preventive administration group, 125 μg/kg·d s.c., * P<0.05, FIG. 3), “significant differences”; in assay [1] (SP peptide medium-dosage treatment administration group, 125 μg/kg·d s.c., ** P<0.01, FIG. 3), “highly significant differences”. The “inflammatory cells infiltration (lung tissue section)” value is listed as “infiltration with a few inflammatory cells around bronchus” in assay [1] (setting [8]); “infiltration with a few inflammatory cells” in assay [1] (setting [9]); “infiltration with greater inflammatory cells” in assay [1] (setting [10]); “infiltration with greater inflammatory cells” in assay [1] (setting [11]); “infiltration with a few inflammatory cells” in assay [1] (setting [12]); “infiltration with many inflammatory cells” in assay [1] (setting [13]). The “pulmonary interstitial edema (lung tissue section)” value in assay [1] (setting [8]) is “mild pulmonary interstitial edema”; in assay [1] (setting [9]), “mild pulmonary interstitial edema”; in assay [1] (setting [10]), “moderate or severe pulmonary interstitial edema”; in assay [1] (setting [11]), “moderate intrapulmonary small perivascular and peribronchial pulmonary interstitial edema”; in assay [1] (setting [12]), “moderate or mild pulmonary interstitial edema”; in assay [1] (setting [13]), “mild intrapulmonary small perivascular and peribronchial pulmonary interstitial edema”. The “alveolar wall congestion or emphysema (lung tissue section)” value in assay [1] (setting [13]) was “congestion around alveolar walls, alveoli are in an emphysematous state”. The “bronchia and perivascular interstitial edema, edematous inflammatory cells infiltration, alveolar wall congestion or emphysema” value in assay [1] (after administering SP peptide for prevention or treatment, histopathologic test, FIG. 3) is on record as “significantly reduced”. Also, in assay [1] (setting [14]), the “lung tissue lesion level” value is reported as “significantly alleviated”. Besides, the “asthma modelling by pathological check on day 1 of week 15” value in assay [1] (five mice drawn from each group, preventive administration groups (SP peptide 250, 125, 62.5 μg/kg·d s.c. from day 1, x15)) is “all asthma groups apart from the preventive administration groups are successfully modeled”. Also, the “IL-13 level in serums” value in assay [3] (SP peptide high-dosage preventive administration group, 250 μg/kg·d s.c. every other day x15 from day 1) was “significantly decreased”; in assay [3] (SP peptide medium-dosage preventive administration group, 125 μg/kg·d s.c. every other day x15 from day 1) it was “significantly decreased”; in assay [5] (SP peptide high-dosage treatment administration group, 250 μg/kg·d s.c. every other day x15 from week 15), “significantly decreased”; in assay [5] (SP peptide low-dosage treatment administration group, 62.5 μg/kg·d s.c. every other day x15 from week 15) it was “significantly decreased”; in assay [5] (SP peptide medium-dosage treatment administration group, 125 μg/kg·d s.c. every other day x15 from week 15), “significantly decreased”. For the same compound, the “IL-13 level in lung tissue homogenates” value in assay [3] (SP peptide high-dosage preventive administration group, 250 μg/kg·d s.c.) is given as “significantly decreased”; in assay [3] (SP peptide high-dosage treatment administration group, 250 μg/kg·d s.c.), “significantly decreased”; in assay [3] (SP peptide low-dosage treatment administration group, 62.5 μg/kg·d s.c.), “significantly decreased”; in assay [3] (SP peptide medium-dosage preventive administration group, 125 μg/kg·d s.c.) it was “significantly decreased”; in assay [3] (SP peptide medium-dosage treatment administration group, 125 μg/kg·d s.c.), “significantly decreased”. Also, in assay [3] (setting [14]), the IL-13 level entry was “significantly reduced”. For the same compound, the IL-4 level entry in assay [4] (SP peptide high-dosage preventive administration group, 250 μg/kg·d s.c., compared to model group) is “significantly decreased”; in assay [4] (SP peptide high-dosage treatment administration group, 250 μg/kg·d s.c., compared to model group) it was “significantly decreased”; in assay [4] (SP peptide low-dosage treatment administration group, 62.5 μg/kg·d s.c., compared to model group) it was “significantly decreased”; in assay [4] (SP peptide medium-dosage preventive administration group, 125 μg/kg·d s.c., compared to model group), “significantly decreased”; in assay [4] (SP peptide medium-dosage treatment administration group, 125 μg/kg·d s.c., compared to model group), “significantly decreased”; in assay [4] (setting [14]) it was “significantly reduced”. Besides, the TNF-α level entry in assay [6] is recorded as “reducing TNF-α level”.
